Results on three molecules are retold here after patent US20040121009A1, “Method of modifying the release profile of sustained release compositions” (Alkermes Controlled Therapeutics, Inc., priority 2002, published 2004).

The conditions of data set [1]: for amount of peripheral fibrosis surrounding the microsphere depot in the subcutis / intensity of the granulomatous inflammatory reaction within the microsphere mass: co-administration with EPO-containing microparticles; for color of the skin overlying microsphere depots: rat, in vivo. How it is done: Animals were anesthetized with 5% halothane. Each animal was shaved and the back swabbed with alcohol. […] The microparticles were prepared as described above. The microparticles were injected into an interscapular site using a 21 gauge thinwall needle attached to a 1 mL syringe. Animals were dosed to receive a total of 10,000 U EPO either alone (Group A) or in combination with a total of 5 mg of hydrocortisone acetate (Group B), or 1 mg (Group C) or 5 mg (Group D) of triamcinolone diacetate. Animals were followed for 35 days post implantation.

A short description of data set [2]: Example 3: serum EPO levels by ELISA. The format is in vivo, rat. The conditions noted are these: 10,000 U EPO microparticles plus 100 mg placebo microparticles (A), 5 mg triamcinolone acetonide admixed with 100 mg placebo microparticles (B) or 100 mg 20% hydrocortisone microparticles (C). The method, then: (§1) Animals were dosed to receive a total of 10,000 Units of EPO in combination with a total of 100 mg of placebo microparticles (Group A), 5 mg of triamcinolone acetonide and 100 mg of placebo microparticles admixed (Group B) and 100 mg of 20% w/w hydrocortisone-containing microparticles (Group C). Sample collection time points were pre-bleed, 1, 2, 6, 12, 19, and 26 days.
To evaluate EPO serum levels, 0.4 mL samples were collected via tail vein on the days specified in Table 3 (four animals per group). After clotting, the samples were centrifuged and frozen (−70° C.).

The test system of a further data set is anti-EPO antibody. Description: Example 3: immunogenicity, anti-EPO antibody ELISA of sera. The format is in vivo, rat.
Data set [3] in a line: Example 3: hematocrit testing. It is filed as in vivo, rat. The following applies: day 19 (maximum for corticosteroid groups); Groups A, B, C of Table 3. How it is done: as §1
To evaluate EPO serum levels, 0.4 mL samples were collected via tail vein on the days specified in Table 3 (four animals per group). After clotting, the samples were centrifuged and frozen (−70° C.). Serum EPO levels were quantitated by ELISA (R&D Systems), according to the manufacturer's instructions (Cat. No. DEP00, and the data were normalized for dose and body weight. Starting on day 12, serum samples were also assessed for EPO antibody levels weekly, using an ELISA This assay detects all antibody subclasses inasmuch as the detecting antibody is reactive with both immunoglobulin heavy (γ) and light chains. Hematocrit analyses were carried out as described in Example 1, and were tested at the following intervals relative to time of microsparticle administration: pre-bleed, 1, 2, 6, 12, 19, and 26 days.

Data set [4] in a line: Example 1: hematocrit testing. It is filed as in vivo, rat. The conditions noted are these: day 36; EPO microparticles plus 1 mg secondary agent (Group C). How it is done: Animals were anesthetized with 5% halothane. […] The microparticles were prepared as described above. […] Hematocrits were evaluated manually following centrifugation for 5 minutes at 8000 rpm (on four animals per group) using a capillary tube.

For `CC(=O)OCC(=O)[C@@]1(O)CC[C@H]2[C@@H]3CCC4=CC(=O)CC[C@]4(C)[C@H]3[C@@H](O)C[C@@]21C` [hydrocortisone acetate], in data set [1], the “amount of peripheral fibrosis surrounding the microsphere depot in the subcutis” value was “diminished”, the “intensity of the granulomatous inflammatory reaction within the microsphere mass” value is “reduced” and the “color of the skin overlying microsphere depots” value is on record as “pallid in most rats”.
On to `CC1(C)O[C@@H]2C[C@H]3[C@@H]4CCC5=CC(=O)C=C[C@]5(C)[C@@]4(F)[C@@H](O)C[C@]3(C)[C@]2(C(=O)CO)O1` [triamcinolone acetonide], for which the “average serum EPO levels (steady state) between day 6 and day 19” value in data set [2] is recorded as 148.6±102.9 mU/mL. Further, the “incidence of animals with anti-EPO antibodies” value in the data set on anti-EPO antibody (day 19, n=4/group) is “only one animal”. The anti-EPO antibody titer in the data set with anti-EPO antibody (day 19, the one positive animal of Group B) amounted to 1800. In the data set with anti-EPO antibody (day 33), the “EPO antibody titer as percentage of the titer in the control group” value is reported as “about 50%” and the “incidence of animals with anti-EPO antibodies” value worked out at 75%. The hematocrit values in data set [3] is listed as 69.3%±3.3.
For the molecule `CC(=O)OCC(=O)[C@@]1(O)[C@H](OC(C)=O)C[C@H]2[C@@H]3CCC4=CC(=O)C=C[C@]4(C)[C@@]3(F)[C@@H](O)C[C@@]21C` [triamcinolone diacetate], the hematocrit values result in data set [4] is given as “mid-60%”. Moreover, in data set [1], the “amount of peripheral fibrosis surrounding the microsphere depot in the subcutis” value is reported as “diminished”, the “intensity of the granulomatous inflammatory reaction within the microsphere mass” value is recorded as “reduced” and the “color of the skin overlying microsphere depots” value is listed as “pallid in most rats”.
